The values below come from patent publication US20220370416A1, “COMPOUNDS AND METHODS FOR TARGETED DEGRADATION OF KRAS” (Arvinas Operations, Inc., priority 2020, published 2022).

SMILES strings stand for the structures.

Test [1] deals with T1, HiBit-KRAS^G12C (Homo sapiens, UniProt P01116, G12C). The experiment in a line: HiBit degradation assay in SW1573 HiBit-KRas^G12C cells. It counts as cell-based. Also noted: expressed in transfected cells; host or cells: SW1573 (clone E6), modified pcDNA3.1 vector, TK promoter. The following applies: 24 hours. In a few lines:
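SW1573 cells stably expressing N-terminally HiBit-tagged KRAS G12C, under the TK promoter, were treated 24 h at 37 °C with 10 μM to 20 nM compound in 0.1% or 0.5% DMSO. Residual HiBit luminescence normalised to DMSO and fitted with a 4-parameter model for DC50 and Dmax. Points with ≥50% viability loss (alamar blue) excluded.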

Test [2] deals with T1, HiBit-KRAS^G12C. The experiment in a line: HiBit degradation assay in MiaPaCa-2 HiBit-KRas^G12C cells. The class given is cell-based. The following applies: 24 hours. The procedure: Reagents. SW1573 (CRL-2170) and MiaPaCa-2 (CRL-1420) cells were purchased from ATCC. Both cell lines are […] for the G12C mutation in KRAS. SW1573 cells were cultured in DMEM+F12+Glutamax (+Sodium Bicarbonate, +sodium pyruvate, Thermofisher scientific, #10565) supplemented with 10% FBS (Thermofisher scientific, #2060357) and 1% Antibiotic-Antimycotic (Thermofisher scientific, #15240096). MiaPaCa-2 cells were cultured in DMEM+Glutamax media (Thermofisher scientific, #10566) supplemented with 10% FBS (Thermofisher scientific, #2060357) and 1% Antibiotic-Antimycotic (Thermofisher scientific, #15240096). For degradation assays, 384 well plates were purchased from Corning (Corning® CellBIND® 384-well Flat Clear Bottom Black Polystyrene Microplates, Low Flange, #3770). Gambogic acid was purchased from Selleckchem (#S2448). Alamar blue was purchased from Thermofisher scientific (A50101) and used according to manufacturer instructions. The Nano-Glo® HiBit Lytic Detection System and Nano-Glo® HiBit Blotting System were purchased from Promega (#N3050 and #N2410) and used according to manufacturer instructions.
To create the MiaPaCa-2 HiBit-KRAS^G12C cell line, CRISPR-Cas9 was used to insert the HiBit tag onto the N-terminus of one or more of the four endogenous KRAS^G12C alleles. After knock-in of the tag, individual clones were isolated by single cell dilution and screened for HiBit insertion by PCR. Clones containing the HiBit tag were sequenced and one was identified that contained the desired HiBit-KRAS^G12C sequence at one allele while the remaining three KRAS^G12C alleles were unaffected. This line was used for all subsequent studies.
Either SW1573 HiBit-KRas^G12C or MiaPaCa-2 HiBit-KRas^G12C cells were plated at 9000 cells/well in a 384 well plate (Corning #3770). Exemplary heterobifunctional molecules and positive controls were diluted in the appropriate cell media and applied to the plated cells resulting in a final concentration titration of 10 μM to 20 nM in either 0.1% or 0.5% dimethyl sulfoxide (DMSO). Gambogic acid was used as a positive control for cytotoxicity and titrated from 10 μM to 78 nM. All assays were performed in triplicate. Cells were treated with compounds for 24 hours at 37° C. in an incubator containing 5% CO2. Following treatment, alamar blue was used to determine if any compounds led to a loss in cell viability after 24 hours. The 10× alamar blue reagent was added to a final concentration of 1× as recommended by the manufacturer and cells were returned to the incubator for 4 hours. Plates were then allowed to equilibrate to room temperature and fluorescence was measured using a Perkin-Elmer EnVision. After completion of the fluorescence read, the liquid from each well was removed and the cells were washed with PBS. The Nano-Glo® HiBiT detection reagent was prepared according to the manufacturer's instructions and added to each well after the PBS wash was removed. Following incubation at room temperature for 45 minutes, the luminescence was read using the ultra-sensitive luminescence aperture on the Envision instrument.
Fluorescence values from the alamar blue treatment were normalized to the DMSO only control for each compound titration. We hypothesized that compounds that led to a ≥50% loss in cell viability of the KRAS-independent SW1573 HiBit-KRas^G12C cells were likely generally cytotoxic and loss of HiBit-KRAS^G12C signal from these compounds may be due to lower cell number and not specific KRAS^G12C degradation. These points were therefore excluded from the data analysis for degradation. […]
On the technique in general: HiBiT is a short tag that completes a luciferase, so light tracks the accessible tagged protein.

The mark [3] stands for this setting: SW1573, SW1573 HiBit-KRas^G12C, 0.1% DMSO, read-out: KRas^G12C-HiBit (SW1573; 0.1% DMSO) Dmax**.
The mark [4] stands for this setting: SW1573 HiBit-KRas^G12C, 0.1% DMSO, read-out: KRas^G12C-HIBit (SW1573; 0.1% DMSO) DC50*.
Where [5] appears, read: MIA PaCa-2, MiaPaCa-2 HiBit-KRas^G12C cells, 0.1% DMSO, maximum degradation, read-out: KRas^G12C-HiBiT (MiaPaCa; 0.1% DMSO) DMax.
[6] abbreviates: SW1573, read-out: KRas^G12C-HiBit (SW1573; 0.1% DMSO) Dmax**, SW1573 HiBit-KRas^G12C, 0.1% DMSO.
The mark [7] stands for this setting: MIA PaCa-2, read-out: KRas^G12C-HiBiT (MiaPaCa; 0.1% DMSO) DMax, MiaPaCa-2 HiBit-KRas^G12C cells, 0.1% DMSO, maximum degradation.

T1 sequence (P01116 1-186 isoform P01116-2 G12C limits assumed): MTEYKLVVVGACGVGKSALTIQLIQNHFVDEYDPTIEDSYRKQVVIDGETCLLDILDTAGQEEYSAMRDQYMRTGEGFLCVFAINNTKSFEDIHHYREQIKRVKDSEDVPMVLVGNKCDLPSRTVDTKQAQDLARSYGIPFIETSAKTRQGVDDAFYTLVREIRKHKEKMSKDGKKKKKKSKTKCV

For `C=CC(=O)N1CCN(c2nc(OCCN3CCC(OCCOCC(=O)N[C@H](C(=O)N4C[C@H](O)C[C@H]4C(=O)N[C@@H](C)c4ccc(-c5scnc5C)cc4)C(C)(C)C)CC3)nc3c(F)c(-c4cc(O)cc5ccccc45)c(Cl)cc23)CC1` [Compound 66, (2S,4R)-1-[(2S)-2-[2-(2-{[1-(2-{[6-chloro-8-fluoro-7-(3-hydroxynaphthalen-1-yl)-4-[4-(prop-2-enoyl)piperazin-1-yl]quinazolin-2-yl]oxy}ethyl)piperidin-4-yl]oxy}ethoxy)acetamido]-3,3-dimethylbutanoyl]-4-hydroxy-N-[(1S)-1-[4-(4-methyl-1,3-thiazol-5-yl)phenyl]ethyl]pyrrolidine-2-carboxamide], the Dmax at HiBit-KRAS^G12C [1] (setting [3]) is 35 to 70%; at HiBit-KRAS^G12C [1] (SW1573, SW1573 HiBit-KRas^G12C, 0.5% DMSO, read-out: KRas^G12C-HiBiT (SW1573; 0.5% DMSO) Dmax**) it was 35 to 70%; at HiBit-KRAS^G12C [2] (setting [5]), below 35%; at HiBit-KRAS^G12C [2] (MIA PaCa-2, MiaPaCa-2 HiBit-KRas^G12C cells, 0.5% DMSO, maximum degradation, read-out: KRas^G12C-HiBiT (MiaPaCa; 0.5% DMSO) DMax), 35 to 70%. In addition, the DC50 on HiBit-KRAS^G12C [1] (setting [4]) fell in the range of 100 to 1000 nM.
Regarding `C=CC(=O)N1CCN(c2nc(O[C@H](C)CN3CCC(COCC(=O)N[C@H](C(=O)N4C[C@H](O)C[C@H]4C(=O)N[C@@H](C)c4ccc(-c5scnc5C)cc4)C(C)(C)C)CC3)nc3c(F)c(-c4cc(O)cc5cccc(C)c45)c(Cl)cc23)CC1` [Compound 11, (2S,4R)-1-[(2S)-2-[2-({1-[(2R)-2-{[6-chloro-8-fluoro-7-(3-hydroxy-8-methylnaphthalen-1-yl)-4-[4-(prop-2-enoyl)piperazin-1-yl]quinazolin-2-yl]oxy}propyl]piperidin-4-yl}methoxy)acetamido]-3,3-dimethylbutanoyl]-4-hydroxy-N-[(1S)-1-[4-(4-methyl-1,3-thiazol-5-yl)phenyl]ethyl]pyrrolidine-2-carboxamide], the Dmax at HiBit-KRAS^G12C [1] (setting [6]) and at HiBit-KRAS^G12C [2] (setting [7]) was 35 to 70% in each case. Besides, the DC50 on HiBit-KRAS^G12C [1] (setting [4]) is 100 to 1000 nM.
As to `C=CC(=O)N1CCN(c2nc(O[C@H](C)CN3CCC(CCC(=O)N[C@H](C(=O)N4C[C@H](O)C[C@H]4C(=O)N[C@@H](C)c4ccc(-c5scnc5C)cc4)C(C)(C)C)CC3)nc3c(F)c(-c4cc(O)cc5ccccc45)c(Cl)cc23)CC1` [Compound 37, (2S,4R)-1-[(2S)-2-(3-{1-[(2R)-2-{[6-chloro-8-fluoro-7-(3-hydroxynaphthalen-1-yl)-4-[4-(prop-2-enoyl)piperazin-1-yl]quinazolin-2-yl]oxy}propyl]piperidin-4-yl}propanamido)-3,3-dimethylbutanoyl]-4-hydroxy-N-[(1S)-1-[4-(4-methyl-1,3-thiazol-5-yl)phenyl]ethyl]pyrrolidine-2-carboxamide], the Dmax was 35 to 70% at HiBit-KRAS^G12C [1] (setting [3]) and below 35% at HiBit-KRAS^G12C [2] (setting [5]). Moreover, at HiBit-KRAS^G12C [1] (setting [4]), the DC50 lay within 100 to 1000 nM.
In the case of `C=CC(=O)N1CCN(c2nc(OCCN3CCC(COc4cc([C@H](C(=O)N5C[C@H](O)C[C@H]5C(=O)N[C@@H](C)c5ccc(-c6scnc6C)cc5)C(C)C)on4)CC3)nc3c(F)c(-c4cc(O)cc5ccccc45)c(Cl)cc23)C[C@@H]1CC#N` [Compound 169, (2S,4R)-1-[(2R)-2-[3-({1-[2-({6-chloro-4-[(3S)-3-(cyanomethyl)-4-(prop-2-enoyl)piperazin-1-yl]-8-fluoro-7-(3-hydroxynaphthalen-1-yl)quinazolin-2-yl}oxy)ethyl]piperidin-4-yl}methoxy)-1,2-oxazol-5-yl]-3-methylbutanoyl]-4-hydroxy-N-[(1S)-1-[4-(4-methyl-1,3-thiazol-5-yl)phenyl]ethyl]pyrrolidine-2-carboxamide], the “KRas^G12C-HiBiT (SW1573; 0.5% DMSO) Dmax**” value at HiBit-KRAS^G12C [1] (SW1573 HiBit-KRas^G12C, 0.5% DMSO) was “A (A ≥ 70)”. Moreover, the DC50 at HiBit-KRAS^G12C [1] (read-out: KRas^G12C-HiBiT (SW1573; 0.5% DMSO) IC50***, SW1573 HiBit-KRas^G12C, 0.5% DMSO) is below 100 nM; on HiBit-KRAS^G12C [2] (read-out: KRas^G12C-HiBiT (MiaPaCa; 0.5% DMSO) IC50, MiaPaCa-2 HiBit-KRas^G12C cells, 0.5% DMSO), 100 to 1000 nM. In addition, the “KRas^G12C-HiBiT (MiaPaCa; 0.5% DMSO) DMax” value at HiBit-KRAS^G12C [2] (MiaPaCa-2 HiBit-KRas^G12C cells, 0.5% DMSO, maximum degradation) is listed as “A (A ≥ 70)”.
Consider `C=CC(=O)N1CCN(c2nc(O[C@H](C)CN3CC(OC4CCN(CC(=O)N[C@H](C(=O)N5C[C@H](O)C[C@H]5C(=O)N[C@@H](C)c5ccc(-c6scnc6C)cc5)C(C)(C)C)CC4)C3)nc3c(F)c(-c4cc(O)cc5ccccc45)c(Cl)cc23)CC1` [Compound 46, (2S,4R)-1-[(2S)-2-{2-[4-({1-[(2R)-2-{[6-chloro-8-fluoro-7-(3-hydroxynaphthalen-1-yl)-4-[4-(prop-2-enoyl)piperazin-1-yl]quinazolin-2-yl]oxy}propyl]azetidin-3-yl}oxy)piperidin-1-yl]acetamido}-3,3-dimethylbutanoyl]-4-hydroxy-N-[(1S)-1-[4-(4-methyl-1,3-thiazol-5-yl)phenyl]ethyl]pyrrolidine-2-carboxamide], for which the Dmax at HiBit-KRAS^G12C [1] (SW1573, read-out: KRas^G12C-HiBiT (SW1573; 0.5% DMSO) Dmax**, SW1573 HiBit-KRas^G12C, 0.5% DMSO) was 35 to 70%; on HiBit-KRAS^G12C [1] (setting [6]) it was 35 to 70%; on HiBit-KRAS^G12C [2] (setting [7]), below 35%; at HiBit-KRAS^G12C [2] (MIA PaCa-2, read-out: KRas^G12C-HiBiT (MiaPaCa; 0.5% DMSO) DMax, MiaPaCa-2 HiBit-KRas^G12C cells, 0.5% DMSO, maximum degradation), 35 to 70%. For the same compound, the DC50 at HiBit-KRAS^G12C [1] (setting [4]) lay in the range of 100 to 1000 nM.
As for `C=CC(=O)N1CCN(c2nc(OCCN3CCN(CCOCC(=O)N[C@H](C(=O)N4C[C@H](O)C[C@H]4C(=O)N[C@@H](C)c4ccc(-c5scnc5C)cc4)C(C)(C)C)CC3)nc3c(F)c(-c4cc(O)cc5ccccc45)c(Cl)cc23)CC1` [Compound 51, (2S,4R)-1-[(2S)-2-(2-{2-[4-(2-{[6-chloro-8-fluoro-7-(3-hydroxynaphthalen-1-yl)-4-[4-(prop-2-enoyl)piperazin-1-yl]quinazolin-2-yl]oxy}ethyl)piperazin-1-yl]ethoxy}acetamido)-3,3-dimethylbutanoyl]-4-hydroxy-N-[(1S)-1-[4-(4-methyl-1,3-thiazol-5-yl)phenyl]ethyl]pyrrolidine-2-carboxamide], the Dmax on HiBit-KRAS^G12C [1] (setting [3]) and at HiBit-KRAS^G12C [2] (setting [5]) was below 35% throughout. Besides, the DC50 is above 1000 nM at HiBit-KRAS^G12C [1] (setting [4]) and 100 to 1000 nM on HiBit-KRAS^G12C [2] (read-out: KRas^G12C-HiBiT (MiaPaCa; 0.1% DMSO) IC50, MiaPaCa-2 HiBit-KRas^G12C cells, 0.1% DMSO).
